Experimental data published in PubChem BioAssay AID179 (DTP/NCI, 2004).
Values joined by “and” are separate entries in the source; they are usually repeats but may differ in a detail not shown here. Equal values may be shown once. Active and inactive are the calls of the source.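 How the source made its calls: active means compounds giving half or more protection of infected cells from virus-caused growth loss, again on retest; inactive means the rest.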 Where a SMILES comes first, the peptide text is derived from it. [ ]: non-standard residue; d: D form. The star is where a group is joined. Cbz = O=C(OCc1ccccc1)*; Aib = CC(C)(N)C(=O)O; OBn = c1ccc(CO*)cc1

System: CEM cells HIV-1 protection, formazan growth assay
Experiment: NCI AIDS Antiviral Assay
Conditions: for IC50: measured here: growth of uninfected CEM cells
In short: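 Steps: treat uninfected and HIV-1-infected human CEM cells at five drug levels; quantify growth by soluble formazan; retest any compound reaching 50% protection; classify actives from the retest.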

Row | SMILES | EC50 | IC50 | outcome
1 | CC[N+](C)(CC)CCNC(=O)C(O)(c1ccccc1)c1ccccc1 | > 200 µM | > 200 µM | 
2 | CC(C)(C)OC(=O)CN1CCNCCNCC1 | > 100 µM | > 100 µM | 
3 | O=C(Cn1c2ccc(Br)cc2c2nc3ccccc3nc21)Nc1ccccc1 | > 100 µM | > 100 µM | 
4 | Fc1ccc(N2C(=S)SC(=Nc3ccccc3)C2=Nc2ccccc2)cc1 | > 200 µM | 23.4 µM | 
5 | CCOC(=O)C(=O)C(/C(=N/N(C)C)C(=O)Nc1ccc(C)cc1C)c1nc2ccccc2[nH]c1=O (stereo not given) | > 380 µM | 219 µM | 
6 | COc1ccccc1C(=O)c1c(NCc2ccccc2)c(=O)c1=O | > 200 µM | 93.3 µM | 
7 | COc1ccc(C2C(N)=NCC2c2ccccn2)cc1 (stereo not given) |  |  | inactive
8 | Cc1c2ccccc2c(CSCC(N)C(=O)O)c2ccccc12 (stereo not given) | > 200 µM | > 200 µM | 
9 | N#Cc1c[nH]c(=O)[nH]c1=O | > 200 µM | > 200 µM | 
10 | O=C(NC1C2CC3CC(C2)CC1C3)c1cc(/C=C/c2ccccc2)[nH]c(=S)n1 (stereo not given) | > 34.7 µM | > 34.7 µM | 
11 | CC1=C(c2ccccc2)C(c2ccccc2)=C(c2ccccc2)C2(c3ccccc3)C(=O)C(C)CN12 (stereo not given) | > 5.75 µM | > 5.75 µM | 
12 | Cc1c[nH]c(C(=O)O)c1-c1cccn1-c1ccc(Cl)cc1[N+](=O)[O-] | > 200 µM | 87.1 µM | 
13 | Cn1c(=O)c(NC(=O)C(Cl)(Cl)Cl)nc2ccccc21 | > 93.3 µM | > 93.3 µM | 
14 | CC1=CCC(=O)[C@]2(C)C(CC(=O)O)[C@]3(C)C4=C(C)C(c5ccoc5)C[C@@H]4O[C@@H]3[C@H](O)[C@@H]12 (stereo not given in full) | > 550 µM | > 550 µM | 
15 | COc1ccccc1/C=C/C(=O)N1CCC2(CC1)C(=O)N(C)CN2c1ccccc1 | > 200 µM | 51.3 µM | 
16 | COc1c(O)cc2c(c1O)C(=O)C1=C(CCCC1)C2=O | > 97.7 µM | 12.3 µM | 
17 | CCC(=O)OC1C(OC2C(C)C(OC3CC(C)(OC)C(O)C(C)O3)C(C)C(=O)OC(CC)C(C)(O)C(O)C(C)C(=O)C(C)CC2(C)O)OC(C)CC1N(C)C (stereo not given) | > 200 µM | 70.8 µM | 
18 | COC1=C(C)C(=O)C2=C(C1=O)C1C3CC4=C(C(=O)C(OC)=C(C)C4=O)C(CNC(=O)C(C)=O)N3C(C#N)C(C2)N1C (stereo not given) | > 1.2 µM | 0.0245 µM | 
19 | COC(=O)C(C)Oc1ccc(O)cc1 (stereo not given) | > 1260 µM | > 1260 µM | 
20 | CC(C)CCC[C@H](C)[C@H]1CC[C@H]2[C@@H]3CC=C4CC(OC(=O)OC5CCC6(C)CC7CCC6(OO7)C5(C)C)CC[C@]4(C)[C@H]3CC[C@]12C (stereo not given in full) | > 200 µM | > 200 µM | 
21 | OC(c1ccccn1)C1CNc2ccccc21 (stereo not given) |  |  | inactive
22 | O=C(CC(=O)c1ccccc1)CC(O)(c1ccccc1)c1ccccc1 | > 11 µM | > 11 µM | 

Row | SMILES | EC50 | IC50 | outcome
23 | N/C(=N\N=C\c1c[nH]c2cc(C(F)(F)F)ccc2c1=O)NO | > 200 µM | 89.1 µM | 
24 | O=C(/C=C/c1ccccc1Br)c1ccccc1 | > 200 µM | 3.16 µM | 
25 | O=C(O)CCSSCCCS(=O)O | 105 µM | 191 µM | 
26 | CCn1cc(/C=C/C(C)c2cn(CC)c(=O)[nH]c2=O)c(=O)[nH]c1=O (stereo not given) |  |  | inactive
27 | CCCCOC(=O)OC1CCC2(C)CC3CCC2(OO3)C1(C)C (stereo not given) | > 200 µM | 0.977 µM | 
28 | NC(N)=NS(=O)(=O)c1ccc(NC(=O)c2cccc3c(Nc4ccc(S(=O)(=O)N=C(N)N)cc4)c4ccccc4nc23)cc1 | > 29.5 µM | 22.4 µM | 
29 | CCOC(=S)SSSC(=S)OCC | > 110 µM | 34.7 µM | 
30 | ClCC1(CCl)COC1 | > 1620 µM | > 1620 µM | 
31 | OC(C1CCCCCCCCCC1)C(O)C1CCCCCCCCCC1 (stereo not given) | > 200 µM | > 200 µM | 
32 | O=C(CSC1=NNC2(C(=O)N1)c1ccccc1-c1ccccc12)NC(=S)Nc1ccccc1 | > 200 µM | 25.7 µM | 
33 | O=C1CCC23CC(C=CC=C12)n1c(=O)n(-c2ccccc2)c(=O)n13 (stereo not given) | > 200 µM | 34.7 µM | 
34 | C/C(CC(O)(C(F)(F)Cl)C(F)(F)Cl)=N\Nc1ccccc1 | > 200 µM | 52.5 µM | 
35 | O=C1/C(=C/c2cccc(Br)c2)CSC/C1=C\c1cccc(Br)c1 | > 200 µM | 2.88 µM | 
36 | COC(=O)CNC(=O)C(CC(C)C)NC(=O)C(CC(C)C)NC(=O)C(C)NC(=O)OCc1ccccc1 (stereo not given) (Cbz-ALLG-OMe; configuration not given here) |  |  | inactive
37 | CCCCCCCCCCCCCCCCOC1OC(COC(C)=O)C(OC(C)=O)C(OC(C)=O)C1O (stereo not given) | > 13.5 µM | > 13.5 µM | 
38 | CC(C)(C)C1CC[C@H]2c3c([nH]c4ccc(Br)cc34)[C@H]3C(=O)N(c4ccccc4)C(=O)[C@H]3[C@H]2C1 (stereo not given in full) | > 7.24 µM | > 7.24 µM | 
39 | CC(NC(=O)C(C)(C)NC(=O)C(CC(=O)OCc1ccccc1)NC(=O)OCc1ccccc1)C(N)=O (stereo not given) (Cbz-Asp(OBn)-[Aib]-Ala-NH2; configuration not given here) | > 200 µM | > 200 µM | 
40 | O=C1SC(c2ccccc2)(c2ccccc2)c2ccccc21 | > 4.79 µM | > 4.79 µM | 
41 | CCCCCCCCCOC(=S)NC |  |  | inactive
42 | COC1(OC)C2(Cl)CC(OC(C)=O)C1(Cl)C(Cl)=C2Cl (stereo not given) | > 200 µM | > 100 µM | 
43 | O=C([O-])[C+](C=Cc1cccc2ccccc12)C(=O)O | > 708 µM | 257 µM | 
44 | OC(CC(O)(C(F)(F)F)C(F)(F)F)c1cccs1 (stereo not given) | > 200 µM | 93.3 µM | 

Row | SMILES | EC50 | IC50 | outcome
45 | COc1cccc(C2c3cc4c(cc3OC(N3CCCC3)C2C)OCO4)c1 (stereo not given) | > 200 µM | 3.8 µM | 
46 | NC(=O)NNC(=O)NC12CC3CC(CC(C3)C1)C2 |  |  | inactive
47 | CC(C)C(NCc1c2ccccc2[n+]([O-])c2ccccc12)C(=O)O (stereo not given) |  |  | inactive
48 | O=c1[nH]c2ccccc2c(=O)c2cc3ccccc3cc12 | > 200 µM | > 200 µM | 
49 | O=C1c2ccccc2C(Br)(Br)c2ccccc21 |  |  | inactive
50 | Nc1nc(N)c(N=O)c(=O)[nH]1.[Cd] | > 200 µM | 1.74 µM | 
51 | COc1ccc(C(=O)c2ccc(OC)c(S(=O)(=O)N(C)C)c2)cc1S(=O)(=O)N(C)C | > 79.4 µM | > 79.4 µM | 
52 | CCCn1c(=O)c(N2CCN(c3ccccc3)CC2)nc2sc3ccccc3c21 | > 200 µM | > 200 µM | 
53 | COc1cc2c(cc1OC)C(Cc1ccc(OC)c(Oc3ccc(C[C@@H]4c5cc(OC)c(OC)cc5CCN4C)cc3)c1)N(C)CC2 (stereo not given in full) |  |  | inactive
54 | COC(=O)C(=O)C(C(=O)OC)C(=O)C(=O)Nc1c(C)cccc1C (stereo not given) | > 204 µM | > 204 µM | 
55 | CCOC(=O)C1=C(C)NC2=C(C(=O)N(c3ccccc3)C2c2ccccc2)C1c1ccccc1 (stereo not given) | > 41.7 µM | > 41.7 µM | 
56 | O=C(O)/C=C/c1c2ccc(=O)c(O)c-2oc2c(O)c(O)ccc12 | 6.03 µM and 24 µM | 151 µM and 162 µM | 
57 | CCOC(=O)/C(C=Nc1c(C)n(C)n(-c2ccccc2)c1=O)=C(/C)O | > 200 µM | > 200 µM | 
58 | CCOCN1C(=O)C2CC(/C=C/C(=O)OC)=CN2C(=O)c2ccccc21 (stereo not given) |  |  | inactive
59 | COc1ccc(/C=C2\CCCCCC2=O)cc1 | > 200 µM | > 200 µM | 
60 | CCCN=C(NNC(N)=O)C(C)=O | > 1350 µM | 1100 µM | 
61 | Cn1c(=O)c2nc3c(nc2n(C)c1=O)oc1ccccc13 |  |  | inactive
62 | CCN(CC)C(=O)CCNC(C)Cc1c[nH]c2ccccc12 (stereo not given) | > 200 µM | > 200 µM | 
63 | O=C(O)[C@@H]1CSC(C(O)C(O)C(O)C(O)CO)N1 (stereo not given in full) | > 200 µM | > 200 µM | 
64 | Cc1cc(-n2c(C)ccc2C)no1 | > 200 µM | > 200 µM | 
65 | O=S(=O)(c1ccc(NC2=NC(c3ccc(O)cc3)(c3ccccc3O)c3ccccc32)cc1)c1ccc(NC2=NC(c3ccc(O)cc3)(c3ccccc3O)c3ccccc32)cc1 (stereo not given) | > 200 µM | 3.47 µM | 
66 | Nc1nc(C[P+](c2ccccc2)(c2ccccc2)c2ccccc2)c(CCCCc2ccccc2)c(=O)[nH]1 | > 200 µM | 33.1 µM | 

Row | SMILES | EC50 | IC50 | outcome
67 | CCC(c1ccc(N(C)C)cc1)C1NC(=S)NC1=O (stereo not given) | > 200 µM | 25.7 µM | 
68 | O=C(c1nc2ccc(Cl)cc2[nH]c1=O)C(O)c1ccccc1 (stereo not given) | > 575 µM | 11.5 µM | 
69 | COc1ccc(-n2c(=O)n(C)c(=O)n2-c2ccc(OC)cc2)cc1 | > 200 µM | > 200 µM | 
70 | COc1ccc(-c2csc(=Nc3ccccc3)n2CC(O)c2ccc([N+](=O)[O-])cc2)cc1 (stereo not given) | > 200 µM | 38 µM | 
71 | CC(=O)OCC1C(OC(C)=O)C(OC(C)=O)C(OC(C)=O)P1(=O)c1ccccc1 (stereo not given) | > 589 µM | 537 µM | 
72 | Cn1c(=O)c2c(nc3n(CC(O)CCl)c(=O)ccn23)n(C)c1=O (stereo not given) | > 200 µM | 22.4 µM | 
73 | CSC1=C(C(=O)N(COCC[Si](C)(C)C)c2ccccc2Br)CCC(C(C)(C)C)C1 (stereo not given) | > 200 µM | 17.8 µM | 
74 | CCCCCCCCCCCCCC(=O)CC(=O)c1c(O)cccc1O |  |  | inactive
75 | CCCCCCCCCCNC(=S)OCCCC |  |  | inactive
76 | CS(=O)(=O)c1ccc(/C=C2/C=Cc3ccccc32)cc1 | > 25.7 µM | > 25.7 µM | 
77 | O=C1c2ccccc2CC12Cc1cc3c(cc1C2=O)CCC3 (stereo not given) | > 200 µM | > 200 µM | 
78 | COc1cc2c(c(OC)c1OC)-c1ccc(OC)c(=O)cc1C(NC(=O)COc1ccccc1)CC2 (stereo not given) | > 0.2 µM | 0.00251 µM | 
79 | C/C=N\N1C(=O)c2ccccc2C1=O | > 191 µM | > 191 µM | 
80 | Cc1ccc(NC(=O)CSc2nnc(Cc3ccccc3)o2)cc1 | > 55 µM | > 55 µM | 
81 | COc1cc(-c2oc3c(OC)c(OC)cc(O)c3c(=O)c2OC)ccc1O | > 100 µM | 12.6 µM and 3.55 µM | 
82 | Cn1c2ccccc2n2c(=O)c(-c3ccc(O)cc3)nnc12 | > 200 µM | > 200 µM | 
83 | COC1=CC(=O)c2nc(C)ccc2C1=O |  |  | inactive
84 | CCOC(=O)c1cnc2c(ccc3ncccc32)c1NCCCN(CC)CC | > 69.2 µM | 9.55 µM | 
85 | COC(=O)C12CC3CC(CC(NC(=O)C(Cc4ccccc4)NC(=O)CN)(C3)C1)C2 (stereo not given) | > 200 µM | 110 µM | 
86 | c1ccc([B-]2([C+]3CCCCC3)N3CCCCC3C3CCCCN32)cc1 (stereo not given) | > 200 µM | 8.32 µM | 
87 | CC(=O)OCc1ccc(-c2nc(C#N)c(N)o2)o1 | > 200 µM | > 200 µM | 
